Reference: patent publication US20120142771A1, “BIPHENYLACETAMIDE DERIVATIVE” (Dainippon Sumitomo Pharma Co., Ltd., priority 2008, published 2012)
Read-outs that look alike come from different tables or passages of the source.

Columns and labels:
[1] = tested on: maximum electroshock seizure (MES) model; experiment: Maximum electroshock seizure (MES) model test; type: in vivo, mice; details: for responders at 100 mg/kg / responders at 50 mg/kg: Mus musculus, po, 1 h; for anticonvulsant action in maximum electroshock seizure (MES) model test: mice, oral 50 or 100 mg/kg, 1 hour after administration
Source text: In order to evaluate the antiepileptic activity of each drug, maximum electroshock seizure (MES) model, subcutaneously pentetrazol-injected model (scPTZ), and amygdala kindling model in rats were used because they show a good clinical prediction.
Test 1: Test with Maximum Electroshock Seizure (MES) Model
Test 1 evaluates the anticonvulsant action of medicaments. Animal model used herein represents the clinical phenotypes of generalized tonic seizure and secondarily generalized tonic-clonic seizure. Test compounds (50 or 100 mg/kg) were orally administered to Slc: ddY male mice (3 mice in each group, body weight 20-30 g). After an hour of administration, their corneas were electrically stimulated (60 Hz, 25 mA, 0.2 second) to induce tonic convulsion (tonic extensor in their hind limbs). […] To the control mice, 0.5% tragacanth solution or 0.5% methylcellulose solution was administered.

[2] = tested on: subcutaneously pentetrazol-injected model (scPTZ); experiment: Subcutaneously pentetrazol-injected model (scPTZ) test; type: in vivo, mice; details: for responders at 50 mg/kg / responders at 100 mg/kg: Mus musculus, po, 1 h; for anticonvulsant action in subcutaneously pentetrazol-injected model (scPTZ) test: mice, oral 50 or 100 mg/kg
Source text: In order to evaluate the antiepileptic activity of each drug, maximum electroshock seizure (MES) model, subcutaneously pentetrazol-injected model (scPTZ), and amygdala kindling model in rats were used because they show a good clinical prediction. […] Test with Subcutaneously Pentetrazol-Injected Model (scPTZ) Similar to Test 1, Test 2 evaluates the anticonvulsant action of medicaments. However, unlike Test 1, animal model used herein represents the clinical phenotypes of generalized absence seizure and myoclonic seizure. Test compounds (50 or 100 mg/kg) were orally administered to Slc: ddY male mice (3 mice in each group, body weight 20-30 g). After an hour, pentetrazol (85 mg/kg) was subcutaneously administered. […] To the control mice, 0.5% tragacanth solution or 0.5% methylcellulose solution was administered.

[3] = 100 mg/kg oral, Slc: ddY male mice, 3 per group, electrical stimulation 1 hour after administration, inhibition of hind limb extension, read-out: MES (positive number/tested number) (converted)
[4] = 50 mg/kg oral, Slc: ddY male mice, 3 per group, pentetrazol 85 mg/kg s.c. after 1 hour, observed 30 minutes for clonic convulsion, read-out: scPTZ (positive number/tested number) (converted)
[5] = 100 mg/kg oral, Slc: ddY male mice, 3 per group, pentetrazol 85 mg/kg s.c. after 1 hour, observed 30 minutes for clonic convulsion, read-out: scPTZ (positive number/tested number) (converted)
[6] = 50 mg/kg oral, Slc: ddY male mice, 3 per group, electrical stimulation 1 hour after administration, inhibition of hind limb extension, read-out: MES (positive number/tested number) (converted)
[7] = pentetrazol 85 mg/kg s.c. after 1 hour

CN(C)C(=O)Cc1ccccc1-c1ccccc1C(F)(F)F [Example 9]
responders at 100 mg/kg [1, 3]: 33.3% | responders at 50 mg/kg [2, 4]: 0% | responders at 100 mg/kg [2, 5]: 66.7%

CNC(=O)Cc1ccc(Cl)cc1-c1cccc(Cl)c1 [Example 128]
responders at 100 mg/kg [1, 3]: 66.7% | responders at 100 mg/kg [2, 5]: 0%

COC(C(=O)N(C)C)c1ccccc1-c1ccc(F)cc1 (stereo not drawn) [Example 205, 2-(4′-fluorobiphenyl-2-yl)-2-methoxy-N,N-dimethylacetamide]
responders at 50 mg/kg [1, 6]: 0% | responders at 100 mg/kg [1, 3]: 100% | responders at 50 mg/kg [2, 4]: 33.3% | responders at 100 mg/kg [2, 5]: 66.7%

NC(=O)Cc1ccc([N+](=O)[O-])cc1-c1ccccc1 [Example 112]
responders at 100 mg/kg [1, 3]: 33.3% | responders at 50 mg/kg [2, 4]: 33.3% | responders at 100 mg/kg [2, 5]: 66.7%

NC(=O)C(O)c1ccc(F)cc1-c1cc(Cl)cc(Cl)c1 (stereo not drawn) [Example 184, 2-(3′,5′-dichloro-5-fluorobiphenyl-2-yl)-2-hydroxyacetamide]
responders at 50 mg/kg [1, 6]: 66.7% | responders at 100 mg/kg [1, 3]: 100% | responders at 50 mg/kg [2, 4]: 33.3% | responders at 100 mg/kg [2, 5]: 66.7%

CNC(=O)Cc1ccccc1-c1cc(F)ccc1C(F)(F)F [Example 101]
responders at 100 mg/kg [1, 3]: 100% | responders at 100 mg/kg [2, 5]: 0%

CN(C)C(=O)Cc1ccccc1-c1cccc(Cl)c1 [Example 15]
responders at 50 mg/kg [1, 6]: 0% | responders at 100 mg/kg [1, 3]: 66.7% | responders at 100 mg/kg [2, 5]: 0%

COC(C(N)=O)c1ccccc1-c1ccccc1 (stereo not drawn) [Example 61, 2-(Biphenyl-2-yl)-2-methoxyacetamide]
responders at 50 mg/kg [1, 6]: 0% | responders at 100 mg/kg [1, 3]: 66.7% | responders at 50 mg/kg [2, 4]: 0% | responders at 100 mg/kg [2, 5]: 100%

CNC(=O)Cc1ccccc1-c1ccc(C(F)(F)F)cc1 [Example 2, N-methyl-2-[4′-(trifluoromethyl)biphenyl-2-yl]acetamide]
responders at 50 mg/kg [1, 6]: 100% | responders at 100 mg/kg [1, 3]: 100% | responders at 100 mg/kg [2, 5]: 0%

NC(=O)Cc1cc(F)ccc1-c1ccc(Cl)cc1 [Example 131]
responders at 100 mg/kg [1, 3]: 100% | responders at 100 mg/kg [2, 5]: 0%

CNC(=O)Cc1ccccc1-c1cccc(C(F)(F)F)c1F [Example 98]
responders at 50 mg/kg [1, 6]: 0% | responders at 100 mg/kg [1, 3]: 66.7% | responders at 100 mg/kg [2, 5]: 0%

NC(=O)Cc1cc(Cl)ccc1-c1ccc(Cl)cc1 [Example 109, 2-(4,4′-dichlorobiphenyl-2-yl)acetamide]
responders at 50 mg/kg [1, 6]: 100% | responders at 100 mg/kg [1, 3]: 100% | anticonvulsant action in maximum electroshock seizure (MES) model test [1]: anticonvulsant action was observed | responders at 50 mg/kg [2, 4]: 66.7% | responders at 100 mg/kg [2, 5]: 100% | anticonvulsant action in subcutaneously pentetrazol-injected model (scPTZ) test [2, 7]: anticonvulsant action was observed

Cc1cc(Cl)cc(-c2ccccc2CC(N)=O)c1F [Example 81]
responders at 100 mg/kg [1, 3]: 33.3% | responders at 100 mg/kg [2, 5]: 0%

CNC(=O)Cc1ccccc1-c1cccc(Cl)c1 [Example 14]
responders at 50 mg/kg [1, 6]: 0% | responders at 100 mg/kg [1, 3]: 100% | responders at 100 mg/kg [2, 5]: 0%

COC(C(N)=O)c1ccccc1-c1cccc(Cl)c1 (stereo not drawn) [Example 206, 2-(3′-chlorobiphenyl-2-yl)-2-methoxyacetamide]
responders at 50 mg/kg [1, 6]: 33.3% | responders at 100 mg/kg [1, 3]: 66.7% | responders at 50 mg/kg [2, 4]: 0% | responders at 100 mg/kg [2, 5]: 66.7%

NC(=O)Cc1ccccc1-c1ccc(F)c(F)c1F [Example 89, 2-(2′,3′,4′-trifluorobiphenyl-2-yl)acetamide]
responders at 50 mg/kg [1, 6]: 0% | responders at 100 mg/kg [1, 3]: 100% | responders at 50 mg/kg [2, 4]: 33.3% | responders at 100 mg/kg [2, 5]: 66.7%

NC(=O)Cc1ccccc1-c1ccc(F)c(F)c1 [Example 21, 2-(3′,4′-difluorobiphenyl-2-yl)acetamide]
responders at 50 mg/kg [1, 6]: 33.3% | responders at 100 mg/kg [1, 3]: 100% | responders at 50 mg/kg [2, 4]: 0% | responders at 100 mg/kg [2, 5]: 100%

NC(=O)Cc1ccc(F)cc1-c1cc(Cl)cc(Cl)c1 [Example 150, 2-(3′,5′-dichloro-5-fluorobiphenyl-2-yl)acetamide]
responders at 50 mg/kg [1, 6]: 100% | responders at 100 mg/kg [1, 3]: 100% | responders at 50 mg/kg [2, 4]: 33.3% | responders at 100 mg/kg [2, 5]: 100%

NC(=O)Cc1ccccc1-c1cc(C(F)(F)F)ccc1F [Example 83, 2-[2′-fluoro-5′-(trifluoromethyl)biphenyl-2-yl]acetamide]
responders at 50 mg/kg [1, 6]: 0% | responders at 100 mg/kg [1, 3]: 66.7% | responders at 50 mg/kg [2, 4]: 33.3% | responders at 100 mg/kg [2, 5]: 66.7%

NC(=O)Cc1ccc(F)cc1-c1cccc(F)c1 [Example 120]
responders at 50 mg/kg [1, 6]: 0% | responders at 100 mg/kg [1, 3]: 100% | responders at 100 mg/kg [2, 5]: 33.3%

COC(C(=O)N(C)C)c1ccccc1-c1ccccc1F (stereo not drawn) [Example 202, 2-(2′-fluorobiphenyl-2-yl)-2-methoxy-N,N-dimethylacetamide]
responders at 50 mg/kg [1, 6]: 33.3% | responders at 100 mg/kg [1, 3]: 66.7% | responders at 50 mg/kg [2, 4]: 0% | responders at 100 mg/kg [2, 5]: 100%

NC(=O)Cc1ccccc1-c1cc(F)c(F)c(F)c1 [Example 90, 2-(3′,4′,5′-trifluorobiphenyl-2-yl)acetamide]
responders at 50 mg/kg [1, 6]: 66.7% | responders at 100 mg/kg [1, 3]: 66.7% | anticonvulsant action in maximum electroshock seizure (MES) model test [1]: anticonvulsant action was observed | responders at 50 mg/kg [2, 4]: 66.7% | responders at 100 mg/kg [2, 5]: 66.7% | anticonvulsant action in subcutaneously pentetrazol-injected model (scPTZ) test [2, 7]: anticonvulsant action was observed

NC(=O)Cc1ccccc1-c1cc(F)ccc1F [Example 152, 2-(2′,5′-difluorobiphenyl-2-yl)acetamide]
responders at 50 mg/kg [1, 6]: 100% | responders at 100 mg/kg [1, 3]: 100% | anticonvulsant action in maximum electroshock seizure (MES) model test [1]: anticonvulsant action was observed | responders at 50 mg/kg [2, 4]: 66.7% | responders at 100 mg/kg [2, 5]: 100% | anticonvulsant action in subcutaneously pentetrazol-injected model (scPTZ) test [2, 7]: anticonvulsant action was observed

NC(=O)Cc1ccccc1-c1cccc(Cl)c1Cl [Example 19]
responders at 50 mg/kg [1, 6]: 33.3% | responders at 100 mg/kg [1, 3]: 66.7% | responders at 100 mg/kg [2, 5]: 0%

CS(=O)(=O)c1ccc(-c2ccccc2CC(N)=O)cc1 [Example 92]
MES (positive number/tested number) ([1]; 100 mg/kg oral, Slc: ddY male mice, 3 per group, electrical stimulation 1 hour after administration, inhibition of hind limb extension): 0/3 | scPTZ (positive number/tested number) ([2]; 100 mg/kg oral, Slc: ddY male mice, 3 per group, pentetrazol 85 mg/kg s.c. after 1 hour, observed 30 minutes for clonic convulsion): 1/3

NC(=O)Cc1ccccc1-c1ccc(C(F)(F)F)cc1 [Example 51]
responders at 50 mg/kg [1, 6]: 0% | responders at 100 mg/kg [1, 3]: 100% | responders at 100 mg/kg [2, 5]: 33.3%

NC(=O)Cc1cc(Cl)ccc1-c1ccc(F)cc1 [Example 129]
responders at 100 mg/kg [1, 3]: 100% | responders at 100 mg/kg [2, 5]: 33.3%

NC(=O)C(O)c1cc(F)ccc1-c1cccc(F)c1 (stereo not drawn) [Example 188, 2-(3′,4-difluorobiphenyl-2-yl)-2-hydroxyacetamide]
responders at 50 mg/kg [1, 6]: 33.3% | responders at 100 mg/kg [1, 3]: 100% | responders at 50 mg/kg [2, 4]: 0% | responders at 100 mg/kg [2, 5]: 66.7%

NC(=O)C1(c2ccccc2-c2ccccc2)CC1 [Example 155]
responders at 100 mg/kg [1, 3]: 0% | responders at 50 mg/kg [2, 4]: 0% | responders at 100 mg/kg [2, 5]: 66.7%

CNC(=O)Cc1ccccc1-c1cccc(SC)c1 [Example 100]
responders at 100 mg/kg [1, 3]: 0% | responders at 100 mg/kg [2, 5]: 100%

NC(=O)Cc1ccccc1-c1cc(F)cc(F)c1F [Example 67, 2-(2′,3′,5′-trifluorobiphenyl-2-yl)acetamide]
responders at 50 mg/kg [1, 6]: 66.7% | responders at 100 mg/kg [1, 3]: 66.7% | anticonvulsant action in maximum electroshock seizure (MES) model test [1]: anticonvulsant action was observed | responders at 50 mg/kg [2, 4]: 66.7% | responders at 100 mg/kg [2, 5]: 66.7% | anticonvulsant action in subcutaneously pentetrazol-injected model (scPTZ) test [2, 7]: anticonvulsant action was observed

NC(=O)C(F)c1ccccc1-c1ccccc1 (stereo not drawn) [Example 162, 2-(biphenyl-2-yl)-2-fluoroacetamide]
responders at 50 mg/kg ([1]; read-out: MES (positive number/tested number), 50 mg/kg oral, Slc: ddY male mice, 3 per group, electrical stimulation 1 hour after administration, inhibition of hind limb extension): 100% | responders at 100 mg/kg ([1]; read-out: MES (positive number/tested number), 100 mg/kg oral, Slc: ddY male mice, 3 per group, electrical stimulation 1 hour after administration, inhibition of hind limb extension): 100% | anticonvulsant action in maximum electroshock seizure (MES) model test [1]: anticonvulsant action was observed | responders at 50 mg/kg ([2]; read-out: scPTZ (positive number/tested number), 50 mg/kg oral, Slc: ddY male mice, 3 per group, pentetrazol 85 mg/kg s.c. after 1 hour, observed 30 minutes for clonic convulsion): 100% | responders at 100 mg/kg ([2]; read-out: scPTZ (positive number/tested number), 100 mg/kg oral, Slc: ddY male mice, 3 per group, pentetrazol 85 mg/kg s.c. after 1 hour, observed 30 minutes for clonic convulsion): 100% | anticonvulsant action in subcutaneously pentetrazol-injected model (scPTZ) test [2, 7]: anticonvulsant action was observed
